Experimental data reported in patent US11339448B2, “Treatment of acute myeloid leukemia” (Ottawa Hospital Research Institute, priority 2018, dated 2022).

What was measured:
Format in all cases: cell-based, human
[1] = system: MTF2 deficient refractory AML cells [MD-AML]; experiment: Cell viability / apoptosis assay (Annexin V/7-AAD) in primary AML patient cells; conditions: for viability of CD34+CD38− cells from MD-AML patients: 0.5 μM Daunorubicin or 1 μM Cytarabine, over 48 hours; for apoptosis: MD-AML cells, in combination with Cytarabine or Daunorubicin; for sensitivity to Cytarabine / sensitivity to Daunorubicin: MD-AML, comparable to B-AML; for sensitivity to Cytarabine: combination with Cytarabine; for sensitivity to Daunorubicin: combination with Daunorubicin; for apoptosis / apoptotic effect, MDM2 inhibitor alone: treatment alone, over the course of 48 hours
Method: Lin^−CD34^+ primary AML bone marrow cells were maintained in IMDM media containing SCF (100 ng/mL), FLT3 (50 ng/mL), IL-3 (20 ng/mL), G-CSF (20 ng/mL) and 10^−4M Beta-mercaptoethanol^21. Growth factors were purchased from Peprotech. On Day 1 of infection, cells were incubated with polybrene (6 mg/ml) for 2 hours at 37° C., then combined with viral supernatants containing either a GFP-tagged MTF2 overexpression vector clone or an empty vector control at a MOI of 30.
(§1) Apoptosis was assessed in sorted cells by the dual staining of AnnexinV and 7-AAD (eBiosciences). Flow cytometric analyses of treated samples were performed consistently, using the same gating strategy throughout. Viable cells were categorized as being AnnexinV and 7-AAD negative, late apoptotic/dead cells were categorized as being AnnexinV and 7-AAD positive.
(§2) Lin^−CD34^+ cells isolated from either umbilical cord blood or primary AML patient bone marrow aspirates were transduced as above, sorted for GFP^+ and cultured in 96-well plates at 100,000 cells/100 uL/well in duplicates. The drugs Daunorubicin, Cytarabine, Nutlin3a and M1773 were dissolved in DMSO. Cytarabine and Daunorubicin were added at concentrations of 1 μM and 0.5 μM, respectively. After 1 hour of incubation with Daunorubicin, cells were collected and transferred into fresh media to remove Daunorubicin from the media. The MDM2 pathway inhibitors, Nutlin3a and M1773 were added at concentrations of 1 μM.

[2] = system: MTF2 shRNA knockdown (SH3 or SH7) HSPCs; experiment: Cell cycle (DRAQ5) and PCNA proliferation analysis in HSPCs; conditions: for fraction of viable MTF2-deficient cells that were PCNA+: MTF2-deficient HSPCs, 48 hours post-treatment; for overall PCNA levels (proliferation): MTF2 deficient (SH3 or SH7) HSPCs, 1 μM, 24 hours post-treatment; for population distribution within the cell cycle stages: scramble or MTF2 knockdown HSPCs, 1 μM for 24 hours
Method: (§3) Cells were sorted using cell surface markers, then fixed in 4% PFA, permeabilized with 0.3% Triton and stained for MTF2 (Genway, clone M96), EZH2 (Millipore, clone AC22), SUZ12 (Millipore, clone 2AO9), H3K27me3 (Cell Signaling, clone C36B11), PCNA (Santa Cruz, clone C10), p53 (Cell Signaling, clone 1C12), or MDM2 (Santa Cruz, clone C18) and appropriate secondary antibodies. Protein expression was determined by flow cytometry compared with an isotype-only control and ran on the LSRFortessa™ Cell Analyzer (BD Biosciences). Data analysis was performed using FlowJo v10.2 to compare mean fluorescent intensity values.
(§4) For cell cycle analysis, cells were fixed and stained with DRAQ5 (BD Biosciences) to assess cell cycle state. For assessing p53 signaling and MTF2 rescue experiments, cells were stained with antibodies against p53, MDM2 or H3K27me3 as above and with DRAQ5 for nucleic acid detection. Cells were analyzed using the ImageStream imaging flow cytometer (Amnis). The nuclear contents of each protein were determined using the preset wizard tool “Nuclear Localization”, within the Amnis IDEAS analysis software.
as §2

Lin−CD34+ HSPCs [3] = experiment: Alkaline comet assay (DNA damage accumulation, Olive moment); conditions: for DNA damage accumulation (Olive moment): scramble vs MTF2 shRNA transduced HSPCs, over a 48-hour period; for DNA damage accumulation: MTF2-deficient HSPCs, in combination with Cytarabine or Daunorubicin
Method: Alkaline comet assays were performed using GelBond Films and buffers were prepared as described^22. Slides were stained with SYBR Gold and imaged using Zeiss Axio2 Imaging inverted microscope equipped with a 5× Plan-NEOFLUAR 0.3NA objective and an AxioCam MRm camera through a FITC-compatible filter. At least 10 random fields containing a minimum of 20 non-overlapping comets in each group total were photographed. Blinded imaging acquisition and analysis was performed using ImageJ software (NIH) and the OpenComet comet assay plugin calculating Olive moment (arbitrary units) on the basis of comet head and tail sizes (measured in pixels) and their integral intensity. The magnitude of these parameters depends on time of electrophoresis, staining brightness and image magnification, which were constant within each assay and between experiments. Comet assays were independently repeated using HSPCs isolated from 3 different UCB samples. Statistical significance was determined by two-way ANOVA using GraphPad Prism software version 6.
as §2

Lin−CD34+ HSPCs [4] = experiment: Cell viability / apoptosis assay (Annexin V/7-AAD) in shRNA-transduced HSPCs; conditions: for sensitivity to induction therapy drugs (cell viability): MTF2-deficient HSPCs, in combination with Cytarabine or Daunorubicin
Method: HSPCs (Lin^−CD34^+) were maintained in IMDM media containing bovine serum albumin, insulin, and transferrin (Stem Cell Technologies), 1% PenStrep (ThermoFisher), SCF (100 ng/mL), TPO (50 ng/mL), FLT3 (100 ng/mL), 1% Glutamax (InVitrogen), and LDL (1 μg/ml) (Calbiochem). Growth factors were purchased from Peprotech. On Day 1 of infection, cells were incubated with polybrene (Sigma) (6 mg/ml) for 2 hours at 37° C., then combined with viral supernatants containing either a GFP-tagged MTF2 shRNA clone or a scrambled shRNA control (ThermoFisher) at a MOI of 100. Cells were centrifuged at 400 g for 20 minutes, then maintained at 37° C. On Day 2, the infection was repeated. Cells were grown for 3 days using a fed-batch culture system^21, then sorted for high GFP-expression and viability by negative selection of Propidium Iodide using the Beckman Coulter MoFlo sorter.
as §1, §2

MDM2 and p53 levels = experiment: Imaging flow cytometry of MDM2 and p53 levels in MTF2 knockdown HSPCs; conditions: for MDM2 and p53 levels within the nucleus: MTF2 knockdown (SH3) HSPCs, 1 μM
Method: as §3, §4, §2

[5] = system: p53 levels in Lin−CD34+ leukemic cells (MD-AML); experiment: Imaging flow cytometry of p53 levels in refractory patient leukemic cells; conditions: Lin−CD34+ leukemic cells from refractory patient BM aspirates (MD-AML)
Method: as §3, §4
Lin^−CD34^+ cells isolated from either umbilical cord blood or primary AML patient bone marrow aspirates were transduced as above, sorted for GFP^+ and cultured in 96-well plates at 100,000 cells/100 uL/well in duplicates. […]

[6] = MTF2 knockdown (SH7) HSPCs, 1 uM

Structure (SMILES) | viability of CD34+CD38− cells from MD-AML patients [1] | fraction of viable MTF2-deficient cells that were PCNA+ [2] | DNA damage accumulation (Olive moment) (Lin−CD34+ HSPCs [3]) | sensitivity to induction therapy drugs (cell viability) (Lin−CD34+ HSPCs [4]) | apoptosis [1] | sensitivity to Cytarabine ([1]; 48 hours) | sensitivity to Cytarabine ([1]; within 24 hours) | sensitivity to Daunorubicin ([1]; 48 hours) | sensitivity to Daunorubicin ([1]; within 24 hours) | apoptosis / apoptotic effect, MDM2 inhibitor alone [1] | p53 levels (MDM2 and p53 levels; MTF2-deficient HSPCs) | MDM2 and p53 levels within the nucleus (MDM2 and p53 levels) | MDM2 levels (MDM2 and p53 levels; [6]) | p53 levels (MDM2 and p53 levels; [6]) | p53 levels [5] | overall PCNA levels (proliferation) [2] | population distribution within the cell cycle stages [2] | DNA damage accumulation (Lin−CD34+ HSPCs [3]) | viability at 1 µM (Lin−CD34+ HSPCs [4]; Homo sapiens, MTF2 shRNA knockdown HSPCs, 48 hours after treatment (Daunorubicin 0.5 μM or Cytarabine 1 μM), read-out: MTF2-deficient cells viable) | apoptosis / apoptotic effect, MDM2 inhibitor alone ([1]; listed as Nutlin3a)
COc1cccc2c1C(=O)c1c(O)c3c(c(O)c1C2=O)C[C@@](O)(C(C)=O)C[C@@H]3O[C@H]1C[C@H](N)[C@H](O)[C@H](C)O1 [Daunorubicin] | remain viable over 48 hours | two-thirds | highest levels of DNA damage were found in the scramble control HSPCs |  |  |  |  |  |  |  |  |  |  |  |  |  |  |  |  | 
CC(C)(C)C[C@H]1N[C@@H](C(=O)NC2CCC(O)CC2)[C@H](c2cccc(Cl)c2F)[C@@]12C(=O)Nc1cc(Cl)ccc12 (stereo partly drawn) [MI-773, (2′R,3S,3′S,5′R)-6-chloro-3′-(3-chloro-2-fluorophenyl)-5′-(2,2-dimethylpropyl)-N-(4-hydroxycyclohexyl)-2-oxospiro[1H-indole-3,4′-pyrrolidine]-2′-carboxamide] |  |  |  | sensitized to induction therapy drugs | underwent apoptosis | increased sensitivity | increased sensitivity | increased sensitivity | increased sensitivity | very low apoptotic effect | rescued | reestablished MDM2 and p53 levels to those observed in the scramble untreated control | low | restored | rescued | decrease in overall PCNA levels | arresting in G0/G1 | same amount of DNA damage accumulation as that found within scramble controls |  | 
Nc1ccn([C@@H]2O[C@H](CO)[C@@H](O)[C@@H]2O)c(=O)n1 [Cytarabine] | remain viable over 48 hours | two-thirds | highest levels of DNA damage were found in the scramble control HSPCs |  |  |  |  |  |  |  |  |  |  |  |  |  |  |  | > 60% | 
COc1ccc(C2=N[C@@H](c3ccc(Cl)cc3)[C@@H](c3ccc(Cl)cc3)N2C(=O)N2CCNC(=O)C2)c(OC(C)C)c1 [Nutlin3A, 4-[(4S,5R)-4,5-bis(4-chlorophenyl)-2-(4-methoxy-2-propan-2-yloxyphenyl)-4,5-dihydroimidazole-1-carbonyl]piperazin-2-one] |  |  |  | sensitized to induction therapy drugs | underwent apoptosis | increased sensitivity | increased sensitivity | increased sensitivity | increased sensitivity |  | rescued | reestablished MDM2 and p53 levels to those observed in the scramble untreated control | low | restored | rescued | decrease in overall PCNA levels | arresting in G0/G1 | same amount of DNA damage accumulation as that found within scramble controls |  | very low apoptotic effect
